Experimental data from US10933056B2, “3-(1H-pyrazol-4-yl)pyridine allosteric modulators of the M4 muscarinic acetylcholine receptor” (Merck Sharp & Dohme Corp., priority 2015, dated 2021).

biological target: T1, human M4 muscarinic acetylcholine receptor (Homo sapiens, UniProt P08173); assay: human FLIPR-based M4 PAM assay (calcium mobilization in CHO-K1 cells with human M4 receptor and Gαqi5); format: cell-based; details: inflection point of dose response curve, acetylcholine at 20% of maximum response, FLIPR Tetra, read-out: M4 PAM IP
T1 construct: expressed in transfected cells; host or cells: CHO-K1
T1 sequence (P08173 1-479): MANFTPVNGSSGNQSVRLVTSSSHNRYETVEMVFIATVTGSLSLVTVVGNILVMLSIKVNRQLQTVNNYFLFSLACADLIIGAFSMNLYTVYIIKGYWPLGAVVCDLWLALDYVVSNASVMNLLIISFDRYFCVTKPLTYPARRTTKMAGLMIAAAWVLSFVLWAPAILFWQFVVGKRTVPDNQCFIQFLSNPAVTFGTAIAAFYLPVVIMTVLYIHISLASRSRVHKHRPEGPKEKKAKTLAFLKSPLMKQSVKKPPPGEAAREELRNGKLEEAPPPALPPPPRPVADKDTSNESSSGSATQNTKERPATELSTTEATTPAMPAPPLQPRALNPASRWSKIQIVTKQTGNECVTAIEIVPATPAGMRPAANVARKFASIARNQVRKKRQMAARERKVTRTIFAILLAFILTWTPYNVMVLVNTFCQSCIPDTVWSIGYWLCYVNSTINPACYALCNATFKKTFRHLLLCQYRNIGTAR
Procedure, shortened: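 CHO-K1 cells stably expressing human M4 and chimeric Gαqi5 were dye-loaded ~1 h at 37° C. Test compound was added with fluorescence recorded 4 min, then acetylcholine at EC20 (sometimes a further EC70 addition) with reading 3.5 min. Value is the inflection point of a 4-parameter logistic fit.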

Structure (SMILES)	EC50
CC(C)N1Cc2ncc(-c3nc(C#N)ccc3-c3cnn(CC4(C)CCCC4)c3)cc2C1=O [Example 121, 6-(6-isopropyl-5-oxo-6,7-dihydro-5H-pyrrolo[3,4-b]pyridin-3-yl)-5-(1-((1-methylcyclopentyl)methyl)-1H-pyrazol-4-yl)picolinonitrile]	0.134 µM
CC#CCN1Cc2ncc(-c3nc(C#N)ccc3-c3cnn(CC4(C)CCCC4)c3)cc2C1=O [Example 122, 6-(6-(but-2-yn-1-yl)-5-oxo-6,7-dihydro-5H-pyrrolo[3,4-b]pyridin-3-yl)-5-(1-((1-methylcyclopentyl)methyl)-1H-pyrazol-4-yl)picolinonitrile]	0.041 µM
C#CCN1Cc2ccc(-c3nc4c(cc3-c3cnn(CC5(C)CCCC5)c3)CCC4)cc2C1=O [Example 123, 6-(3-(1-((1-methylcyclopentyl)methyl)-1H-pyrazol-4-yl)-6,7-dihydro-5H-cyclopenta[b]pyridin-2-yl)-2-(prop-2-yn-1-yl)isoindolin-1-one]	0.048 µM
Cc1cc(F)c(-c2cnn(CC3(C)CCCC3)c2)c(-c2ccc3c(c2)C(=O)N(C)C3)n1 [Example 126, 6-(4-fluoro-6-methyl-3-(1-((1-methylcyclopentyl)methyl)-1H-pyrazol-4-yl)pyridin-2-yl)-2-methylisoindolin-1-one]	0.071 µM
CN1Cc2ccc(-c3nc(F)c(F)cc3-c3cnn(CC4(C)CCCC4)c3)cc2C1=O [Example 127, 6-(5,6-Difluoro-3-(1-((1-methylcyclopentyl)methyl)-1H-pyrazol-4-yl)pyridin-2-yl)-2-methylisoindolin-1-one]	0.09 µM
C#Cc1ccc(-c2cnn(CC3(C)CCCC3)c2)c(-c2cnc3c(c2)C(=O)N(CC2CC2)C3)n1 [Example 128, 6-(Cyclopropylmethyl)-3-(6-ethynyl-3-(1-((1-methylcyclopentyl)methyl)-1H-pyrazol-4-yl)pyridin-2-yl)-6,7-dihydro-5H-pyrrolo[3,4-b]pyridin-5-one]	0.062 µM

The next molecules have a lower EC50 than those just listed; values first:

EC50	Structure (SMILES)
0.026 µM	C#CCN1Cc2ncc(-c3nc(C#N)ccc3-c3cnn(CC4(C)CCCC4)c3)cc2C1=O [Example 120, 5-(1-((1-methylcyclopentyl)methyl)-1H-pyrazol-4-yl)-6-(5-oxo-6-(prop-2-yn-1-yl)-6,7-dihydro-5H-pyrrolo[3,4-b]pyridin-3-yl)picolinonitrile]
0.017 µM	C#CCN1Cc2ccc(-c3nc(C#N)ccc3-c3cnn(CC4(C)CCCC4)c3)cc2C1=O [Example 120A]
0.03 µM	CN1Cc2ccc(-c3nc4c(cc3-c3cnn(CC5(C)CCCC5)c3)CCC4=O)cc2C1=O [Example 124, 2-(2-Methyl-3-oxoisoindolin-5-yl)-3-(1-((1-methylcyclopentyl)methyl)-1H-pyrazol-4-yl)-5,6-dihydro-7H-cyclopenta[b]pyridin-7-one]
0.026 µM	CN1Cc2ccc(-c3nc(C#N)c(Cl)cc3-c3cnn(CC4(C)CCCC4)c3)cc2C1=O [Example 125, 3-Chloro-6-(2-methyl-3-oxoisoindolin-5-yl)-5-(1-((1-methylcyclopentyl)methyl)-1H-pyrazol-4-yl)picolinonitrile]
0.039 µM	CC1(Cn2cc(-c3ccc(C#N)nc3-c3cnc4c(c3)C(=O)N(CCO)C4)cn2)CCCC1 [Example 129, 6-(6-(2-Hydroxyethyl)-5-oxo-6,7-dihydro-5H-pyrrolo[3,4-b]pyridin-3-yl)-5-(1-((1-methylcyclopentyl)methyl)-1H-pyrazol-4-yl)picolinonitrile]
